Test results: US12660819B2, “Herbicidal derivatives” (SYNGENTA CROP PROTECTION AG, priority 2020, dated 2026)

Legend:
Format in all cases: in vivo
Setaria faberi (SETFA) [1] = assay: Post-emergence Test (glasshouse, percentage damage to the plant); settings: post-emergence spray, 1000 g/ha unless otherwise stated, evaluated after 13 days
How it was run: (§1)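 Seeds are sown in standard soil under controlled glasshouse conditions. The pots are then sprayed at 1000 g/ha, unless otherwise stated, with compound in acetone/water (50:50) containing 0.5% Tween 20. After 13 days further growth, percentage plant damage is scored from 1 (0-20%) to 5 (81-100%).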

[2] = test system: Amaranthus retoflexus (AMARE); assay: as above; settings: post-emergence spray, 1000 g/ha unless otherwise stated, evaluated after 13 days
How it was run: (§2)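 Percentage damage to the plant, assessed 13 days after application and scored 1–5 in 20% bands. Pots sown in standard soil received compound at 1000 g/ha unless otherwise stated, sprayed under 24/16 °C, 14 h light, 65% humidity.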

[3] = test system: Ipomoea hederacea (IPOHE); assay: as above; settings: post-emergence spray, 1000 g/ha unless otherwise stated, evaluated after 13 days
How it was run: as §1

Zea mays (ZEAMX) [4] = assay: as above; settings: post-emergence spray, 1000 g/ha unless otherwise stated, evaluated after 13 days
How it was run: as §1

[5] = test system: Abutilon theophrasti (ABUTH); assay: as above; settings: post-emergence spray, 1000 g/ha unless otherwise stated, evaluated after 13 days
How it was run: as §2

[6] = test system: Echinochloa crus-galli (ECHCG); assay: as above; settings: post-emergence spray, 1000 g/ha unless otherwise stated, evaluated after 13 days
How it was run: as §2

[7] = test system: Echinochloa crus-galli (ECHCG); assay: Pre-emergence Test (glasshouse, percentage damage to the plant); settings: 1000 g/ha unless otherwise stated, five-point scale
[8] = test system: Ipomoea hederacea (IPOHE); assay: as above; settings: 1000 g/ha unless otherwise stated, five-point scale
[9] = test system: Abutilon theophrasti (ABUTH); assay: as above; settings: 1000 g/ha unless otherwise stated, five-point scale
[10] = test system: Amaranthus retoflexus (AMARE); assay: as above; settings: 1000 g/ha unless otherwise stated, five-point scale
Setaria faberi (SETFA) [11] = assay: as above; settings: 1000 g/ha unless otherwise stated, five-point scale
Zea mays (ZEAMX) [12] = assay: as above; settings: 1000 g/ha unless otherwise stated, five-point scale

Compound | Post-emergence Test SETFA, percentage damage to the plant (five-point scale) (Setaria faberi (SETFA) [1]) | Post-emergence Test AMARE, percentage damage to the plant (five-point scale) [2] | Post-emergence Test IPOHE, percentage damage to the plant (five-point scale) [3] | Post-emergence Test ZEAMX, percentage damage to the plant (five-point scale) (Zea mays (ZEAMX) [4]) | Post-emergence Test ABUTH, percentage damage to the plant (five-point scale) [5] | Post-emergence Test ECHCG, percentage damage to the plant (five-point scale) [6] | percentage damage to the plant, ECHCG [7] | percentage damage to the plant, IPOHE [8] | percentage damage to the plant, ABUTH [9] | percentage damage to the plant, AMARE [10] | percentage damage to the plant, SETFA (Setaria faberi (SETFA) [11]) | percentage damage to the plant, ZEAMX (Zea mays (ZEAMX) [12])
CCn1c(C)c(-c2ccc(Cl)cc2F)c(=O)c(C(=O)O)c1-c1ccc(Cl)c(Cl)c1 [Compound 153, 5-(4-chloro-2-fluoro-phenyl)-2-(3,4-dichlorophenyl)-1-ethyl-6-methyl-4-oxo-pyridine-3-carboxylic acid] | 5 (5=81-100%) | 5 (5=81-100%) | 5 (5=81-100%) | 5 (5=81-100%) | 5 (5=81-100%) | 5 (5=81-100%) | 5 (5=81-100%) | 4 (4=61-80%) | 5 (5=81-100%) | 5 (5=81-100%) | 5 (5=81-100%) | 4 (4=61-80%)
CCn1c(C)c(-c2ccc(Cl)cc2OC)c(=O)c(C(=O)O)c1-c1ccc(Cl)c(Cl)c1 [Compound 154, 5-(4-chloro-2-methoxy-phenyl)-2-(3,4-dichlorophenyl)-1-ethyl-6-methyl-4-oxo-pyridine-3-carboxylic acid] | 4 (4=61-80%) | 4 (4=61-80%) | 4 (4=61-80%) | 3 (3=41-60%) | 4 (4=61-80%) | 4 (4=61-80%) | 5 (5=81-100%) | 3 (3=41-60%) | 3 (3=41-60%) | 1 (1=0-20%) | 4 (4=61-80%) | 2 (2=21-40%)
CCn1c(C)c(-c2ccc(F)cc2C)c(=O)c(C(=O)O)c1-c1ccc(Cl)c(Cl)c1 [Compound 155, 2-(3,4-dichlorophenyl)-1-ethyl-5-(4-fluoro-2-methyl-phenyl)-6-methyl-4-oxo-pyridine-3-carboxylic acid] | 4 (4=61-80%) | 3 (3=41-60%) | 4 (4=61-80%) | 4 (4=61-80%) | 4 (4=61-80%) | 4 (4=61-80%) | 5 (5=81-100%) | 1 (1=0-20%) | 2 (2=21-40%) | 1 (1=0-20%) | 5 (5=81-100%) | 1 (1=0-20%)
CCn1c(C)c(-c2ccc(Cl)cc2C)c(=O)c(C(=O)O)c1-c1ccc(Cl)c(Cl)c1 [Compound 156, 5-(4-chloro-2-methyl-phenyl)-2-(3,4-dichlorophenyl)-1-ethyl-6-methyl-4-oxo-pyridine-3-carboxylic acid] | 4 (4=61-80%) | 3 (3=41-60%) | 4 (4=61-80%) | 4 (4=61-80%) | 4 (4=61-80%) | 4 (4=61-80%) | 5 (5=81-100%) | 1 (1=0-20%) | 2 (2=21-40%) | 1 (1=0-20%) | 4 (4=61-80%) | 0
CCn1c(C)c(-c2ccc(F)cc2OC)c(=O)c(C(=O)O)c1-c1ccc(Cl)c(Cl)c1 [Compound 157, 2-(3,4-dichlorophenyl)-1-ethyl-5-(4-fluoro-2-methoxy-phenyl)-6-methyl-4-oxo-pyridine-3-carboxylic acid] | 4 (4=61-80%) | 1 (1=0-20%) | 4 (4=61-80%) | 4 (4=61-80%) | 4 (4=61-80%) | 4 (4=61-80%) | 4 (4=61-80%) | 2 (2=21-40%) | 4 (4=61-80%) | 0 | 5 (5=81-100%) | 3 (3=41-60%)
CCn1c(C)c(-c2cccs2)c(=O)c(C(=O)O)c1-c1ccc(Cl)cc1 [Compound 165, 2-(4-chlorophenyl)-1-ethyl-6-methyl-4-oxo-5-(2-thienyl)pyridine-3-carboxylic acid] | 1 (1=0-20%) | 0 | 2 (2=21-40%) | 1 (1=0-20%) | 2 (2=21-40%) | 0 | 0 | 1 (1=0-20%) | 1 (1=0-20%) | 1 (1=0-20%) | 0 | 0
CCn1c(C)c(-c2ccc(Cl)s2)c(=O)c(C(=O)O)c1-c1ccc(Cl)cc1 [Compound 166, 2-(4-chlorophenyl)-5-(5-chloro-2-thienyl)-1-ethyl-6-methyl-4-oxo-pyridine-3-carboxylic acid] | 3 (3=41-60%) | 2 (2=21-40%) | 1 (1=0-20%) | 1 (1=0-20%) | 3 (3=41-60%) | 2 (2=21-40%) | 0 | 1 (1=0-20%) | 1 (1=0-20%) | 1 (1=0-20%) | 0 | 0
CCn1c(C)c(-c2cc(C)cs2)c(=O)c(C(=O)O)c1-c1ccc(Cl)cc1 [Compound 167, 2-(4-chlorophenyl)-1-ethyl-6-methyl-5-(4-methyl-2-thienyl)-4-oxo-pyridine-3-carboxylic acid] | 2 (2=21-40%) | 0 | 3 (3=41-60%) | 1 (1=0-20%) | 4 (4=61-80%) | 1 (1=0-20%) | 0 | 1 (1=0-20%) | 3 (3=41-60%) | 1 (1=0-20%) | 2 (2=21-40%) | 3 (3=41-60%)
CCn1c(C)c(-c2cnccn2)c(=O)c(C(=O)O)c1-c1ccc(Cl)cn1 [Compound 168, 2-(5-chloro-2-pyridyl)-1-ethyl-6-methyl-4-oxo-5-pyrazin-2-yl-pyridine-3-carboxylic acid] | 0 | 0 | 0 | 0 | 0 | 0 | 0 | 0 | 0 | 0 | 0 | 0
CCn1c(C)c(-c2ccnnc2)c(=O)c(C(=O)O)c1-c1ccc(Cl)cc1 [Compound 180, 2-(4-chlorophenyl)-1-ethyl-6-methyl-4-oxo-5-pyridazin-4-yl-pyridine-3-carboxylic acid] | 0 | 0 | 2 (2=21-40%) | 0 | 0 | 0 | 0 | 0 | 0 | 0 | 0 | 0
